Our source for the Ki values is BindingDB's records for doi:10.1021/jm020911e (Universit&#224, 2002).

For orientation: pKi means the Ki on a negative log10 scale, so that one unit is a factor of ten.

pKi: −log10 of the molar value.

This assay addresses Adenosine receptor A3 (Bos taurus). The assay can be described thus: Displacement of [125I]AB-MECA from Adenosine A3 receptor in bovine cortical membranes in the presence of 20 nM DPCPX.
In the case of `CC(=O)Nc1nc(-c2ccccc2)nc2nc(-c3ccccc3)cn12` [N-(2,7-Diphenyl-imidazo[1,2-a][1,3,5]triazin-4-yl)-acetamide], the pKi is 7.40.
On to `Cc1cn2c(NC3CCCC3)nc(-c3ccccc3)nc2n1` [Cyclopentyl-(7-methyl-2-phenyl-imidazo[1,2-a][1,3,5]triazin-4-yl)-amine], for which the pKi is 5.65.
The value for `O=C(Nc1nc(-c2ccccc2)nc2nc(-c3ccccc3)cn12)C1CCCC1` [Cyclopentanecarboxylic acid (2,7-diphenyl-imidazo[1,2-a][1,3,5]triazin-4-yl)-amide] was 5.91; that for `CCC(=O)CNc1nc(-c2ccccc2)nc2nc(C)cn12` [1-(7-Methyl-2-phenyl-imidazo[1,2-a][1,3,5]triazin-4-ylamino)-butan-2-one] was less than 5.00; that for `CC(=O)CNc1nc(-c2ccccc2)nc2nc(C)cn12` [1-(7-Methyl-2-phenyl-imidazo[1,2-a][1,3,5]triazin-4-ylamino)-propan-2-one] was less than 5.00.
`CC(=O)Nc1nc(-c2ccccc2)nc2nc(C)cn12` [N-(7-Methyl-2-phenyl-imidazo[1,2-a][1,3,5]triazin-4-yl)-acetamide]: the pKi was 6.64.
As to `CC(C)c1cn2c(NC(=O)C3CCCC3)nc(-c3ccccc3)nc2n1` [Cyclopentanecarboxylic acid (7-isopropyl-2-phenyl-imidazo[1,2-a][1,3,5]triazin-4-yl)-amide], the pKi was 7.76.
